# Measured values reported in BindingDB's records for patent US11208411 (The Regents of the University of California; Washington …, 2021).
# Biological target: Proto-oncogene tyrosine-protein kinase Src (Homo sapiens, UniProt P12931)
# Test: Expression and Purification of Active Kinases
# Proto-oncogene tyrosine-protein kinase Src, sequence (P12931 2-536 limits assumed): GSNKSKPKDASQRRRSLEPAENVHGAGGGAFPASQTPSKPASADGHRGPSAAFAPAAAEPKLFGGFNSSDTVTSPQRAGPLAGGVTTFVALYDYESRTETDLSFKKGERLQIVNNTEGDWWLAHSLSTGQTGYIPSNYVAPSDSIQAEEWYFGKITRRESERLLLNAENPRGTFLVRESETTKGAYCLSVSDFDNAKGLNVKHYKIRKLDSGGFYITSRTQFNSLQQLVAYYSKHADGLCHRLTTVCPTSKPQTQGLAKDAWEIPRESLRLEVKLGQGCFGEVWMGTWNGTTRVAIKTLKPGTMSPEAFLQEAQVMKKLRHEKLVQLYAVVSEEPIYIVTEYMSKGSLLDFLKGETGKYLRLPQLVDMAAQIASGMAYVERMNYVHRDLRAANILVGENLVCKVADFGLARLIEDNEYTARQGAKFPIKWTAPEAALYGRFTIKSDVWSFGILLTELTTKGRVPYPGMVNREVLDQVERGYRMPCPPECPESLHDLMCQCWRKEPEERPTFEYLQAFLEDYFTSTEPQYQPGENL
structure (smiles),measurement,value
"CC(C)(C)n1nc(Cc2coc3ccccc23)c2c(N)ncnc21 [US11208411, Cmpd LJQ-145]",IC50,1.57 µM
